Experimental findings from ChEMBL document CHEMBL3124838, “Discovery of 6-aryl-azabenzimidazoles that inhibit the TBK1/IKK-ε kinases” (Bioorg Med Chem Lett, 2014) are described below.

The IC50 is the concentration that gives 50% inhibition.

For one test, the target named is Fibroblast growth factor receptor 4 (Homo sapiens) (UniProt P22455). The experiment in a line: Inhibition of human FGFR4 assessed as residual activity at 1 uM relative to control.
On to `COc1ccc(-c2nc3cc(-c4csc(C(=O)NCCC(C)C)c4)cnc3[nH]2)cc1`, for which the Activity was 102%.
In the case of `COc1ccc(-c2nc3cc(-c4csc(C(=O)NCC(C)(C)C)c4)cnc3[nH]2)cc1`, the Activity is 109%.
As to `COc1ccc(-c2nc3cc(-c4csc(C(=O)NCC(C)C)c4)cnc3[nH]2)cc1`, the Activity amounted to 109%.

The next test addresses Receptor-type tyrosine-protein kinase FLT3 (Homo sapiens) (UniProt P36888). The experiment in a line: Inhibition of human FLT3 assessed as residual activity at 1 uM relative to control.
With `COc1ccc(-c2nc3cc(-c4csc(C(=O)NCCC(C)C)c4)cnc3[nH]2)cc1`, the Activity is 18%.
`COc1ccc(-c2nc3cc(-c4csc(C(=O)NCC(C)(C)C)c4)cnc3[nH]2)cc1`: the Activity was 30%.
`COc1ccc(-c2nc3cc(-c4csc(C(=O)NCC(C)C)c4)cnc3[nH]2)cc1`: the Activity was determined as 6%.

The target of a further test is Tyrosine-protein kinase Fer (Homo sapiens) (UniProt P16591). The experiment in a line: Inhibition of human FER assessed as residual activity at 1 uM relative to control.
With `COc1ccc(-c2nc3cc(-c4csc(C(=O)NCCC(C)C)c4)cnc3[nH]2)cc1`, the Activity came to 104%.
Same read-out and setting: with `COc1ccc(-c2nc3cc(-c4csc(C(=O)NCC(C)(C)C)c4)cnc3[nH]2)cc1` the figure was 100%; with `COc1ccc(-c2nc3cc(-c4csc(C(=O)NCC(C)C)c4)cnc3[nH]2)cc1`, 111%.

For another test, the system named is Proto-oncogene tyrosine-protein kinase receptor Ret (Homo sapiens), P07949 [V804L]. As to the kind of experiment: Inhibition of human RET V804L mutant assessed as residual activity at 1 uM relative to control.
Proto-oncogene tyrosine-protein kinase receptor Ret (Homo sapiens), P07949 [V804L], sequence (P07949 whole entry V804L): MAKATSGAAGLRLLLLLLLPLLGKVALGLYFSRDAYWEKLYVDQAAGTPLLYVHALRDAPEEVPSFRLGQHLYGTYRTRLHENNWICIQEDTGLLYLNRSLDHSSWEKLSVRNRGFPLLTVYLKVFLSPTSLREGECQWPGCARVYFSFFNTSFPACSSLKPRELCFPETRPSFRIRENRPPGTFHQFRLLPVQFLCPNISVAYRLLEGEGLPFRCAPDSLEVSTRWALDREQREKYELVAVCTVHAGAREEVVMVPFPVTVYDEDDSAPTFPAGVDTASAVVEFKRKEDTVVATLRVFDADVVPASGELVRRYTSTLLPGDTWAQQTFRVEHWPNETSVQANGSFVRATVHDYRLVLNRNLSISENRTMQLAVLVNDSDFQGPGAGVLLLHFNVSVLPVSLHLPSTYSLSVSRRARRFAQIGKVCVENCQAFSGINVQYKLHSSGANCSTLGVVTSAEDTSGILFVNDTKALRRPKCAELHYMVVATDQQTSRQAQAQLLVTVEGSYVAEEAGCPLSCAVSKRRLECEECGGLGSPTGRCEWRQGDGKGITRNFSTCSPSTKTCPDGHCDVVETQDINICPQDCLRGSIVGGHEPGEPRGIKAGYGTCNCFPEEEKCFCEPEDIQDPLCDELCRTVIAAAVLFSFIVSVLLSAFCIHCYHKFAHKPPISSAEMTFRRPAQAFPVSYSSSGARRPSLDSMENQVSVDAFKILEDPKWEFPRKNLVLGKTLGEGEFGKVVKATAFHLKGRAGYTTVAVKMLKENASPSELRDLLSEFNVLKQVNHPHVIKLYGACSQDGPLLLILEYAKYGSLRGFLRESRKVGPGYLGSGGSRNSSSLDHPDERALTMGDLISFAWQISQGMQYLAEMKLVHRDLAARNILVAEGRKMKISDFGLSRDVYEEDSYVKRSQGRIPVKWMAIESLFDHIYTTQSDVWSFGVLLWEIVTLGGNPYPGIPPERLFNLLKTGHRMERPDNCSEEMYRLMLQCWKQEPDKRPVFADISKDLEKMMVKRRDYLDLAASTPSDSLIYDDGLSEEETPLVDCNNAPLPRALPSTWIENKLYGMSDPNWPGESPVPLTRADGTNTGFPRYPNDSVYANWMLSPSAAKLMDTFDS
In the case of `COc1ccc(-c2nc3cc(-c4csc(C(=O)NCCC(C)C)c4)cnc3[nH]2)cc1`, the Activity was 5%.
On the same count and under the same terms, in the case of `COc1ccc(-c2nc3cc(-c4csc(C(=O)NCC(C)(C)C)c4)cnc3[nH]2)cc1` it was 13%.
With `COc1ccc(-c2nc3cc(-c4csc(C(=O)NCC(C)C)c4)cnc3[nH]2)cc1`, the Activity was 8%.

The target of the next test is ALK tyrosine kinase receptor (Homo sapiens) (UniProt Q9UM73). The experiment in a line: Inhibition of human ALK assessed as residual activity at 1 uM relative to control.
Consider `COc1ccc(-c2nc3cc(-c4csc(C(=O)NCCC(C)C)c4)cnc3[nH]2)cc1`, for which the Activity worked out at 88%.
The same measure, in the same setting: in the case of `COc1ccc(-c2nc3cc(-c4csc(C(=O)NCC(C)(C)C)c4)cnc3[nH]2)cc1` it was 101%.
In the case of `COc1ccc(-c2nc3cc(-c4csc(C(=O)NCC(C)C)c4)cnc3[nH]2)cc1`, the Activity was found to be 99%.

For the next test, the target named is Phosphatidylinositol 4,5-bisphosphate 3-kinase catalytic subunit gamma isoform (Homo sapiens) (UniProt P48736). As to the kind of experiment: Inhibition of human PI3K p120gamma assessed as residual activity at 1 uM relative to control.
Phosphatidylinositol 4,5-bisphosphate 3-kinase catalytic subunit gamma isoform (Homo sapiens), sequence (P48736 whole entry, looked up, canonical isoform): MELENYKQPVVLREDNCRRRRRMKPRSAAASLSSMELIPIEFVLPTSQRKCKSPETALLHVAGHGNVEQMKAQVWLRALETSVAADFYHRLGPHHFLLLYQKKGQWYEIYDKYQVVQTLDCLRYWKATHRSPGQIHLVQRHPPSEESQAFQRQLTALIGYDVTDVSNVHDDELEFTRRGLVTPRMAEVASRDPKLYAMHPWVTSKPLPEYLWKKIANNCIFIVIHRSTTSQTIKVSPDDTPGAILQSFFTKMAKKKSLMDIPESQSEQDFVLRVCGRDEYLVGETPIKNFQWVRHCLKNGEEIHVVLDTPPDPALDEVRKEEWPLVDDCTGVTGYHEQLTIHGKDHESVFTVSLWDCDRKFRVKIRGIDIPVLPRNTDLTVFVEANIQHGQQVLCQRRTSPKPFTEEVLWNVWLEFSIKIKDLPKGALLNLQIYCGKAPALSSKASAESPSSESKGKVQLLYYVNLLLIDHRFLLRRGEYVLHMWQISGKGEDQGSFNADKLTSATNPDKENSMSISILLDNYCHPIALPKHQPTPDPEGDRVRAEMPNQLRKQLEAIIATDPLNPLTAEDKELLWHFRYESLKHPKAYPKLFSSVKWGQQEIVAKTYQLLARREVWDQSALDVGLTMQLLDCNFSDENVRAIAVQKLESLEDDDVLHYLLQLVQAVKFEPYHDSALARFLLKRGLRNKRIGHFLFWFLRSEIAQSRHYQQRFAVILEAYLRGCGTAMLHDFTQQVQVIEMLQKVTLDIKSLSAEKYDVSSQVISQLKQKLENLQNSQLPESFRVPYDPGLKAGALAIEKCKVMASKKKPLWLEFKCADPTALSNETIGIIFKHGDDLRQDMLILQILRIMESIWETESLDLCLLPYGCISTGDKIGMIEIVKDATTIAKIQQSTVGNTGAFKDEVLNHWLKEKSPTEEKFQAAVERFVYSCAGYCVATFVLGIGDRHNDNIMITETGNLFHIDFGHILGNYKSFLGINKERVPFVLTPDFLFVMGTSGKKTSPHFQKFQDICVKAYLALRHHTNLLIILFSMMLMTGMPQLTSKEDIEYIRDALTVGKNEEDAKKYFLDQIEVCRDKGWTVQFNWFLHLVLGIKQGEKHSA
As to `COc1ccc(-c2nc3cc(-c4csc(C(=O)NCCC(C)C)c4)cnc3[nH]2)cc1`, the Activity came to 90%.
Consider `COc1ccc(-c2nc3cc(-c4csc(C(=O)NCC(C)(C)C)c4)cnc3[nH]2)cc1`, for which the Activity came to 85%.
`COc1ccc(-c2nc3cc(-c4csc(C(=O)NCC(C)C)c4)cnc3[nH]2)cc1`: the Activity was determined as 86%.

A further test relates to Fibroblast growth factor receptor 1 (Homo sapiens), P11362 [V561M]. The experiment in a line: Inhibition of human FGFR1 V561M mutant assessed as residual activity at 1 uM relative to control.
Fibroblast growth factor receptor 1 (Homo sapiens), P11362 [V561M], sequence (P11362 whole entry V561M): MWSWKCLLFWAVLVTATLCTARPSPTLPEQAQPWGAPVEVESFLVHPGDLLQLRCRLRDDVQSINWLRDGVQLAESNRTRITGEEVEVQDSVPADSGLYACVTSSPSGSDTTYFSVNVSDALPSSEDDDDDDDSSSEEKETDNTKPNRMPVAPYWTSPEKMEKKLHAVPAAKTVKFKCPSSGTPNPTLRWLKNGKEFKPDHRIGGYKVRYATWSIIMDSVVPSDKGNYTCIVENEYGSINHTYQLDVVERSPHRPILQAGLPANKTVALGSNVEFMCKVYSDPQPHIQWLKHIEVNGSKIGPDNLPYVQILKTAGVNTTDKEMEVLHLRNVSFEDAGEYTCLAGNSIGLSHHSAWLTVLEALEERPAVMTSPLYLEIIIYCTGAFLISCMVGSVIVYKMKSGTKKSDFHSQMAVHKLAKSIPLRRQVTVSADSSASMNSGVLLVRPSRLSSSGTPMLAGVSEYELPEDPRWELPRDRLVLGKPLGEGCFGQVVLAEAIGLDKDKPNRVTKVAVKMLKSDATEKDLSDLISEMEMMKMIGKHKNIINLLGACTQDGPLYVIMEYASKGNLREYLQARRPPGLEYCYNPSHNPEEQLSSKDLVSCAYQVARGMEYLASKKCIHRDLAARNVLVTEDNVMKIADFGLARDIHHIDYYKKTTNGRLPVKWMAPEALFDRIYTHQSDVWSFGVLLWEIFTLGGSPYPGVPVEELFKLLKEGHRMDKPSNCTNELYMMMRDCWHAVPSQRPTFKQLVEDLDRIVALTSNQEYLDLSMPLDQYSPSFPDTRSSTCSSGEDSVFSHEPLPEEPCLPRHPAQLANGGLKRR
With `COc1ccc(-c2nc3cc(-c4csc(C(=O)NCCC(C)C)c4)cnc3[nH]2)cc1`, the Activity came to 90%.
As for `COc1ccc(-c2nc3cc(-c4csc(C(=O)NCC(C)(C)C)c4)cnc3[nH]2)cc1`, the Activity was determined as 104%.
On the same count and under the same terms, with `COc1ccc(-c2nc3cc(-c4csc(C(=O)NCC(C)C)c4)cnc3[nH]2)cc1` the figure was 85%.

In a further test the target is Vascular endothelial growth factor receptor 2 (Homo sapiens) (UniProt P35968). The experiment in a line: Inhibition of human KDR assessed as residual activity at 1 uM relative to control.
As to `COc1ccc(-c2nc3cc(-c4csc(C(=O)NCCC(C)C)c4)cnc3[nH]2)cc1`, the Activity came out at 23%.
As to `COc1ccc(-c2nc3cc(-c4csc(C(=O)NCC(C)(C)C)c4)cnc3[nH]2)cc1`, the Activity was determined as 31%.
For `COc1ccc(-c2nc3cc(-c4csc(C(=O)NCC(C)C)c4)cnc3[nH]2)cc1`, the Activity turned out to be 14%.

The next test concerns the target Macrophage colony-stimulating factor 1 receptor (Homo sapiens) (UniProt P07333). The experiment in a line: Inhibition of human FMS assessed as residual activity at 1 uM relative to control.
`COc1ccc(-c2nc3cc(-c4csc(C(=O)NCCC(C)C)c4)cnc3[nH]2)cc1`: the Activity came to 70%.
On to `COc1ccc(-c2nc3cc(-c4csc(C(=O)NCC(C)(C)C)c4)cnc3[nH]2)cc1`, for which the Activity was determined as 70%.
Regarding `COc1ccc(-c2nc3cc(-c4csc(C(=O)NCC(C)C)c4)cnc3[nH]2)cc1`, the Activity was 63%.

For another test, the target named is Serine/threonine-protein kinase MARK2 (Homo sapiens) (UniProt Q7KZI7). As to the kind of experiment: Inhibition of human PAR-1Balpha assessed as residual activity at 1 uM relative to control.
For the compound `COc1ccc(-c2nc3cc(-c4csc(C(=O)NCCC(C)C)c4)cnc3[nH]2)cc1`, the Activity turned out to be 54%.
For `COc1ccc(-c2nc3cc(-c4csc(C(=O)NCC(C)(C)C)c4)cnc3[nH]2)cc1`, the Activity worked out at 67%.
As for `COc1ccc(-c2nc3cc(-c4csc(C(=O)NCC(C)C)c4)cnc3[nH]2)cc1`, the Activity was determined as 52%.

The target in the next test is Fibroblast growth factor receptor 3 (Homo sapiens) (UniProt P22607). The experiment in a line: Inhibition of human FGFR3 assessed as residual activity at 1 uM relative to control.
In the case of `COc1ccc(-c2nc3cc(-c4csc(C(=O)NCCC(C)C)c4)cnc3[nH]2)cc1`, the Activity worked out at 79%.
Take `COc1ccc(-c2nc3cc(-c4csc(C(=O)NCC(C)(C)C)c4)cnc3[nH]2)cc1`: the Activity worked out at 80%.
As for `COc1ccc(-c2nc3cc(-c4csc(C(=O)NCC(C)C)c4)cnc3[nH]2)cc1`, the Activity turned out to be 62%.

The target in the next test is T1, Tyrosine-protein kinase receptor TYRO3 (Homo sapiens) (UniProt Q06418).
T1 sequence (whole entry): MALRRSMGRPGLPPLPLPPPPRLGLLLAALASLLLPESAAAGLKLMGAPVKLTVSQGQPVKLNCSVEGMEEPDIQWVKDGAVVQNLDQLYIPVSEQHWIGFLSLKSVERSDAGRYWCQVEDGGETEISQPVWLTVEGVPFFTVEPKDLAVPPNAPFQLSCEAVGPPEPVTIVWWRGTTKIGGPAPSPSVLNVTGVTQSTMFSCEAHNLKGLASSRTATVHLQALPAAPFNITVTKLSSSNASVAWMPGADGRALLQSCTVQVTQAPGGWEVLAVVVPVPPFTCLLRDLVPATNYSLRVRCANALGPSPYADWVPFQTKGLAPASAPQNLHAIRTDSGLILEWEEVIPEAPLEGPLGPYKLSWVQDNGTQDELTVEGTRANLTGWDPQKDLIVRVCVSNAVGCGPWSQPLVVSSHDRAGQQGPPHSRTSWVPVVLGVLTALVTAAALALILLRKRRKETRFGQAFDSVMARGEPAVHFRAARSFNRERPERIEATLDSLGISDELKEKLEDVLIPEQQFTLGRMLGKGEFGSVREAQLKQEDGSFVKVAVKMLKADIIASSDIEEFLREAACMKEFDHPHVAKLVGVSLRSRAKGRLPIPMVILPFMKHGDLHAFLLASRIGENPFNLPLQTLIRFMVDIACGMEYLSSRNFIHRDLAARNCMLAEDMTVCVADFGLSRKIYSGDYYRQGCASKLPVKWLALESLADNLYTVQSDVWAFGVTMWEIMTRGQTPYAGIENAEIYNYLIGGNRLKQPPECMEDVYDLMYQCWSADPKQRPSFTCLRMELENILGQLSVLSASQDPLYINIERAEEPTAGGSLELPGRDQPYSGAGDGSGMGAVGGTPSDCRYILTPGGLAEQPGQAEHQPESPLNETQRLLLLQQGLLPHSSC
As to the kind of experiment: Inhibition of human RSE assessed as residual activity at 1 uM relative to control.
In the case of `COc1ccc(-c2nc3cc(-c4csc(C(=O)NCCC(C)C)c4)cnc3[nH]2)cc1`, the Activity is 104%.
`COc1ccc(-c2nc3cc(-c4csc(C(=O)NCC(C)(C)C)c4)cnc3[nH]2)cc1`: the Activity turned out to be 104%.
As to `COc1ccc(-c2nc3cc(-c4csc(C(=O)NCC(C)C)c4)cnc3[nH]2)cc1`, the Activity was 112%.

The next test has as its target T2, Aurora kinase C (Homo sapiens) (UniProt Q9UQB9).
T2 sequence (whole entry): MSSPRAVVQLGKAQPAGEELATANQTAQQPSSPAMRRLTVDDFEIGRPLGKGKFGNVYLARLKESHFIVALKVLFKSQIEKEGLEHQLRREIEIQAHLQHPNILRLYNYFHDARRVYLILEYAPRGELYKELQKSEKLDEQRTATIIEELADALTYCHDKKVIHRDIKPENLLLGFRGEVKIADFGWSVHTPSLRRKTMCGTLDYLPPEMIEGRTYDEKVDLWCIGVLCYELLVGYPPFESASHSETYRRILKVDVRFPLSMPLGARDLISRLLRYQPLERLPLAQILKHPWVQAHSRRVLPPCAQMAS
The experiment in a line: Inhibition of human Aurora-C assessed as residual activity at 1 uM relative to control.
Take `COc1ccc(-c2nc3cc(-c4csc(C(=O)NCCC(C)C)c4)cnc3[nH]2)cc1`: the Activity stood at 77%.
With `COc1ccc(-c2nc3cc(-c4csc(C(=O)NCC(C)(C)C)c4)cnc3[nH]2)cc1`, the Activity is 76%.
In the case of `COc1ccc(-c2nc3cc(-c4csc(C(=O)NCC(C)C)c4)cnc3[nH]2)cc1`, the Activity is 76%.

The next test addresses T3, Serine/threonine-protein kinase TBK1 (Homo sapiens, UniProt Q9UHD2).
T3 sequence (Q9UHD2 whole entry): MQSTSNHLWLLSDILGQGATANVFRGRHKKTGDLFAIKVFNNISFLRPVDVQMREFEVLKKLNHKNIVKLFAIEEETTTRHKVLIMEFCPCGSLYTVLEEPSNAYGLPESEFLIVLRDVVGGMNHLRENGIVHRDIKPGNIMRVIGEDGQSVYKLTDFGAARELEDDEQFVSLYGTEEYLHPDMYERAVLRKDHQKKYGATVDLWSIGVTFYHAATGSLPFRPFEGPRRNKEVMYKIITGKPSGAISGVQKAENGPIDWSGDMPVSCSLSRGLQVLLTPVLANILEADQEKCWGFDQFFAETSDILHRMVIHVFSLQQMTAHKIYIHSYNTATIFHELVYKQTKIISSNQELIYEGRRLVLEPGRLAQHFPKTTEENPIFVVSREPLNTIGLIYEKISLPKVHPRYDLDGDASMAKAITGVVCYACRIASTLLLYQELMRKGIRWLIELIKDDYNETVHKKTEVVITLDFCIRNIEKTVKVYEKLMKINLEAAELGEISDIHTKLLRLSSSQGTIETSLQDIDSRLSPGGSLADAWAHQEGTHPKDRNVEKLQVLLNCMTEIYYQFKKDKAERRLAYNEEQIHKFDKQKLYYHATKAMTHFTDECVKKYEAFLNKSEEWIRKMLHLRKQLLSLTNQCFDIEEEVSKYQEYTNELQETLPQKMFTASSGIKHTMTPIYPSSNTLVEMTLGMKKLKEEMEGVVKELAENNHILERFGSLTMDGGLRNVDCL
The experiment in a line: Inhibition of TBK1 in HEK293 cells after 4.5 hrs by ISRE-luciferase reporter gene assay in presence of poly I:C. Format: cell-based. A general note: In a reporter assay the amount or activity of a reporter protein is the signal.
With `COc1ccc(-c2nc3cc(-c4csc(C(=O)NCCC(C)C)c4)cnc3[nH]2)cc1`, the IC50 was determined as 78 nM.
`COc1ccc(-c2nc3cc(-c4csc(C(=O)NCC(C)(C)C)c4)cnc3[nH]2)cc1`: the half-inhibitory concentration (IC50) worked out at 30 nM.
Turning to `COc1ccc(-c2nc3cc(-c4csc(C(=O)NCC(C)C)c4)cnc3[nH]2)cc1`, the concentration for half-maximal inhibition (IC50) worked out at 37 nM.

The target in another test is Rho-associated protein kinase 2 (Homo sapiens) (UniProt O75116). The experiment in a line: Inhibition of human ROCK-2 assessed as residual activity at 1 uM relative to control.
Rho-associated protein kinase 2 (Homo sapiens), sequence (O75116 whole entry, looked up): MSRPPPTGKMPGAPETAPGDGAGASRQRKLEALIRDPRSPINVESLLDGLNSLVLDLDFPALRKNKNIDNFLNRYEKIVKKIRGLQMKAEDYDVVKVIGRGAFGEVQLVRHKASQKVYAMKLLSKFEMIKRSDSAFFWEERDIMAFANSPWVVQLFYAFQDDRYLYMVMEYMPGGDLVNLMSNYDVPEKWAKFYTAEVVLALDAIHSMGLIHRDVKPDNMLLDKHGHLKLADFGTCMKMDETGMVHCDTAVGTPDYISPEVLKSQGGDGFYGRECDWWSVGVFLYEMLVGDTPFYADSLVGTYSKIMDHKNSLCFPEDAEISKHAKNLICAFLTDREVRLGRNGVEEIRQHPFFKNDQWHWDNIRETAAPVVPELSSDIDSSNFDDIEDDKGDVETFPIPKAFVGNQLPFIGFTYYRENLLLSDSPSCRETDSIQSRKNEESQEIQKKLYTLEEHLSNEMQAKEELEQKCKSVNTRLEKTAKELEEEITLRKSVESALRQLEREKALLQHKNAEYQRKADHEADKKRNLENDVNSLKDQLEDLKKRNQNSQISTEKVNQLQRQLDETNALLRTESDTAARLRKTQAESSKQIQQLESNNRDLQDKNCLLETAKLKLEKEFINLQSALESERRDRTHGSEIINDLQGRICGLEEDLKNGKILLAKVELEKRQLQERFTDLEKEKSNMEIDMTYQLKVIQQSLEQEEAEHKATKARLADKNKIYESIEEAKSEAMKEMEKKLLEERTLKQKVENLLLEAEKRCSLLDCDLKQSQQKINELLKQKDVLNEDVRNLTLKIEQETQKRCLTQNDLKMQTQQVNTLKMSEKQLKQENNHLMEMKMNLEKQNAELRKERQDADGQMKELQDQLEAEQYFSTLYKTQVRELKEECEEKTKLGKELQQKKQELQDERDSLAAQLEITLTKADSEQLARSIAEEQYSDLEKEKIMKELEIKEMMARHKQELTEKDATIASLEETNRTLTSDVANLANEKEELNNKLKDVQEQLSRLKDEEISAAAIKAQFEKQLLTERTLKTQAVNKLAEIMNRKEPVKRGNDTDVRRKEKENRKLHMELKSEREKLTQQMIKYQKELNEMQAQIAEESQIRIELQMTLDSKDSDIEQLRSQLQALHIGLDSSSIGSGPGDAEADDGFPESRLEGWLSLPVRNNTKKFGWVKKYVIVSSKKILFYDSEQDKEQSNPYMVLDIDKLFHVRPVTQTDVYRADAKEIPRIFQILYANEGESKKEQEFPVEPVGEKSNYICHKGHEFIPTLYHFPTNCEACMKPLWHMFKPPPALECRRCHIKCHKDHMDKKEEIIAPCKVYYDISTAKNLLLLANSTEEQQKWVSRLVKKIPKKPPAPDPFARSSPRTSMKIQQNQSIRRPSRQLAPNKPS
Turning to `COc1ccc(-c2nc3cc(-c4csc(C(=O)NCCC(C)C)c4)cnc3[nH]2)cc1`, the Activity was 102%.
As to `COc1ccc(-c2nc3cc(-c4csc(C(=O)NCC(C)(C)C)c4)cnc3[nH]2)cc1`, the Activity stood at 108%.
For `COc1ccc(-c2nc3cc(-c4csc(C(=O)NCC(C)C)c4)cnc3[nH]2)cc1`, the Activity stood at 108%.
